According to ChEMBL document CHEMBL1155795, “Revisiting the sponge sources, stereostructure, and biological activity of cyclocinamide a” (J Nat Prod, 2008):
Starred links: 1 amine or outer side, 2 acyl side, 3 side chain; linkers in the order of their positions; H or OH if unused. Positions of bridges follow the written chain, without caps; N, C: chain ends. Non-standard residues stand in square brackets, D forms with d. Residues, ends and D or L forms follow the SMILES beside them. *: point of attachment. Trp(5-Br) = N[C@@H](Cc1c[nH]c2ccc(Br)cc12)C(=O)O; isoSer(2S) = O=C([C@@H](O)CN[*:1])[*:2]; X1 = Cn1cc(Cl)cc1C(=O)*; Dap = NC[C@H](N)C(=O)O

How the values were obtained:
[1] = Cytotoxicity against human […] cells assessed as zone of inhibition at 90 ug/disk by disk diffusion soft agar colony forming assay; format: functional; conditions: read-out: IZ
[2] = Cytotoxicity against mouse CFU-GM cells assessed as zone of inhibition at 90 ug/disk by disk diffusion soft agar colony forming assay; format: functional; conditions: read-out: IZ
HCT-116 = assay: Cytotoxicity against human HCT116 cells; format: functional, cell-based

Cn1cc(Cl)cc1C(=O)NCC(=O)N[C@H]1CNC(=O)[C@H](Cc2c[nH]c3ccc(Br)cc23)NC(=O)[C@@H](O)CNC(=O)[C@H](CC(N)=O)NC1=O (X1-G[Dap]N[isoSer(2S)][Trp(5-Br)]; lactam 2-C)
zone of inhibition at 90 µg/disc [1]: 26 mm
zone of inhibition at 90 µg/disc [2]: 16 mm
IC50 (HCT-116): > 10 µg/mL
